Experimental data reported in patent publication US10814010B2, “FOXC2 inhibitor and methods of use thereof” (The Board of Regents of The University of Texas System, priority 2018, dated 2020).

Legend:
MDA-MB-231 cells = assay: MTT cell viability assay, MDA-MB-231; assay type: cell-based; conditions: Homo sapiens; MDA-MB-231, MTT, high FOXC2 expression
Protocol: It was hypothesized that the specific binding of MC-1-F2 can lead to its specific cellular activity against cancer cells with high FOXC2 expression. This hypothesis was tested by evaluating MC-1-F2's cellular activity on cell lines with different FOXC2 expression levels: MCF-7, BT549, and MDA-MB-231. […] However, further studies are still underway. The specificity in cellular activity of MC-1-F2 was further evaluated in the form of a soft-agar colony forming assay to determine if MC-1-F2 was able to inhibit in vitro tumorigenicity of cancer cells in a FOXC2 expression-dependent manner. […] Further testing is underway in various breast cancer cell lines with different FOXC2 expression levels.
Cell viability was assessed by MTT (3-(4,5-Dimethylthiazol-2-yl)-2,5-Diphenyltetrazolium Bromide) assay. 1×10^4 cells were seeded on 48-well cell culture plate, and were incubated for at least 24 hours prior to drug treatment. The MTT reagent (Fisher Scientific) was added to the culture medium 3 hours prior to the end of compound incubation. The reaction took place in the 37° C. incubator with 5% CO2 for 3 hours. Cell culture medium was then removed from the wells. Cells with the insoluble purple formazan were lysed with DMSO for 10 mins at room temperature, 0.5 ml per well. The solution was aliquot to 96-well plate for absorbance reading at 570 nm using a plate reader.

FOXC2 = target: T1, FOXC2 (Homo sapiens, UniProt Q99958); assay: Western blot of FOXC2 protein level and nuclear localization in MDA-MB-231; assay type: cell-based; conditions: MDA-MB-231, 20 μM
T1 construct: endogenous in cells; host or cells: MDA-MB-231
T1 sequence (Q99958 1-501): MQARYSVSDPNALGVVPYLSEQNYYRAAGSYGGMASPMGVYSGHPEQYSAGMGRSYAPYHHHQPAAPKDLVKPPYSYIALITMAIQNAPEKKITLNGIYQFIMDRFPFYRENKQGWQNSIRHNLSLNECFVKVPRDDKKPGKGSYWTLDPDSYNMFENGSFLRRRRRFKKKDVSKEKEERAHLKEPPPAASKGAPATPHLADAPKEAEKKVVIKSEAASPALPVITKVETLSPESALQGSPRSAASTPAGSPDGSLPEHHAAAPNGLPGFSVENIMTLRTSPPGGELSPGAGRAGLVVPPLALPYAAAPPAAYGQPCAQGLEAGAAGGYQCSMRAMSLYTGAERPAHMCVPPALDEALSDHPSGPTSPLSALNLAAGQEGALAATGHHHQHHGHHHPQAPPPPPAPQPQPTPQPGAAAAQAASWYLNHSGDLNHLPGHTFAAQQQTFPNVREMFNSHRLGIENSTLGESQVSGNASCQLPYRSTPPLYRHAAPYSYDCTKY
Source text: As a transcription factor, FOXC2 needs to localize into the nucleus to promote the transcription of target genes. Therefore, a small molecule that blocks nuclear localization of FOXC2 is expected to inhibit EMT. […] Putative kinases that phosphorylate FOXC2 have been proposed (Werden et al., 2016; Ivanov et al., 2013; Golden & Cantley, 2014). It is possible that MC-1-F2 disrupts the protein-protein interaction between FOXC2 and its kinase, resulting in the decease of FOXC2 nuclear localization. Investigation into the exact mechanism by which MC-1-F2 inhibits FOXC2 phosphorylation and nuclear localization is underway.
(§1) 50 μg of total protein per sample was incubated with 4× loading buffer at 100° C. for 5 min. Protein samples were then loaded into a polyacrylamide gel and subjected to SDS-PAGE. Resolved proteins were then transferred by a wet transfer method to a PVDF membrane at 100 V for 1 hour using a BioRad Mini Trans-Blot Electrophoresis Transfer Cell. Upon the completion of wet transfer, the membrane was then blocked with 5% (w/v) fat-free milk in 1× Tris-buffered saline/0.1% (v/v) Tween-20 (TBS-T) for at least 1 hour. Then incubated with the respective primary antibodies diluted in 5% BSA in 1×TBST at 4° C. overnight. The following day exposed to 1:1000 dilution of anti-mouse or anti-rabbit HRP-conjugated secondary antibodies in 5% (w/v) fat-free milk in 1×TBS-T for 1 hour at room temperature. The probed proteins were then detected for chemiluminescent signal using SuperSignal Chemiluminescent Substrate (PIERCE). Pierce antibodies: B-actin, and all other antibodies used are from cell signaling. MG132 treatment was added to cells (0.5 μM) for 1-hour incubation prior to compound treatment, no more than 24 hours total exceeded during MG132 incubation.

PC3 cells [1] = assay: Western blot of EMT, CSC markers and AR in PC3; assay type: cell-based; conditions: PC3, 20 μM, 48 hours
Source text: Due to our interest in CRPC the cell lines DU145 and PC3 were chosen due to their chemoresistance to high concentrations of enzalutamide, androgen independence, and relatively high expression of FOXC2 (FIGS. 30A&B). First, the effect of MC-1-F2 on the inhibition of EMT markers was examined (FIGS. 26A-G). […] The variability in E-cadherin expression can be due to a different mode of action the ligand MC-1-F2 is having on prostate cancer cells, possibly a time dependent effect of the ligand.
After confirmation of the ligand's ability to block EMT, the ligand's ability to decrease cancer stem cell (CSC) characteristics was determined. CRPC is plagued by a higher ratio of CSC to normal prostate cells, leading to the acquired characteristics of higher proliferative and self-renewal capabilities (Yun et al., 2016). CSC markers, Nanog, C-myc and KLF4, were examined.
as §1, with “[…]” for “or anti-rabbit”, “signaling.” for “signaling. MG132 treatment was added to cells (0.5 μM) for 1-hour incubation prior to compound treatment, no more than 24 hours total exceeded during MG132 incubation.”

PC3 cells [2] = assay: Co-treatment MTT assay, PC3; conditions: constant ratio
DU145 cells = assay: Co-treatment MTT assay, DU145; conditions: constant ratio

SMILES: N=C(N)NCCCCNc1nc(Nc2ccc(Oc3ccccc3)cc2)nc(N2CCN(c3nc(N)nc(Nc4ccc(N5CCOCC5)cc4)n3)CC2)n1 [MC-1-F2]
- EC50 (MDA-MB-231 cells): ~20 µM
- FOXC2 protein level (FOXC2; 24 hours, absence of MG132): decrease in FOXC2 protein level
- FOXC2 protein level in presence of MG132 (FOXC2; 24 hours, with 26S proteasome inhibitor MG132): prevented by incubating the cells with a 26S proteasome inhibitor, MG132
- nuclear localization of FOXC2 (FOXC2; 48 hours, cytosolic and nuclear fractions): decrease in nuclear localization of FOXC2
- AR expression (PC3 cells [1]): no effect on AR expression
- CSC markers Nanog, C-myc and KLF4 (PC3 cells [1]): significant decreases
- E-cadherin expression levels (PC3 cells [1]): no recovery in the expression levels of E-cadherin
- EMT markers ZEB1, Vimentin, N-cadherin and Slug (PC3 cells [1]): inhibit various EMT markers
- epithelial marker ZO-1 expression (PC3 cells [1]): recovery of the epithelial marker ZO-1
- combination index with docetaxel (CompuSyn) (PC3 cells [2]): negative combination index
- combination effect with docetaxel (PC3 cells [2]; 24 hours): synergistic effects
- combination effect with enzalutamide (CompuSyn) (PC3 cells [2]; 24 hours): only additive effects
- combination index with docetaxel (CompuSyn) (DU145 cells): negative combination index
- combination effect with docetaxel (DU145 cells; 24 hours): synergistic effects
- combination effect with enzalutamide (CompuSyn) (DU145 cells; 24 hours): only additive effects
